From PubChem BioAssay AID276 (DTP/NCI, 2004)
“And” between values parts separate entries of the source, which are not always exact repeats. Equal entries are not always repeated. Inconclusive results and toxic doses are left out.

System: B6C3F1 mice, Lewis lung carcinoma iv, survival T/C
Assay: NCI In Vivo Anticancer Drug Screen. Data for tumor model Lewis Lung Carcinoma (intravenous) in B6C3F1 mice
Settings: endpoint: median survival time, schedule: Q01DX009 (ip), higher = longer survival
Method in brief: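 Mice carrying transplanted tumors received test compound; survival in the treated group was divided by that of the vehicle-treated control group to give the T/C value.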

[1] = dose: 0.5 mg/kg/injection, vehicle: saline
[2] = dose: 12.5 mg/kg/injection, vehicle: suspension in saline
[3] = dose: 25.0 mg/kg/injection, vehicle: suspension in saline
[4] = dose: 50.0 mg/kg/injection, vehicle: suspension in saline
[5] = dose: 100.0 mg/kg/injection, vehicle: suspension in saline
[6] = dose: 200.0 mg/kg/injection, vehicle: suspension in saline
[7] = dose: 1.56 mg/kg/injection, vehicle: saline with Tween-80
[8] = dose: 3.12 mg/kg/injection, vehicle: saline with Tween-80
[9] = dose: 6.25 mg/kg/injection, vehicle: saline with Tween-80
[10] = dose: 12.5 mg/kg/injection, vehicle: saline with Tween-80
[11] = dose: 25.0 mg/kg/injection, vehicle: saline with Tween-80
[12] = dose: 25.0 mg/kg/injection, vehicle: saline
[13] = dose: 6.25 mg/kg/injection, vehicle: water
[14] = dose: 50.0 mg/kg/injection, vehicle: saline with Tween-80
[15] = dose: 100.0 mg/kg/injection, vehicle: saline with Tween-80
[16] = dose: 200.0 mg/kg/injection, vehicle: saline with Tween-80
[17] = dose: 400.0 mg/kg/injection, vehicle: saline with Tween-80
[18] = dose: 12.5 mg/kg/injection, vehicle: water
[19] = dose: 25.0 mg/kg/injection, vehicle: water
[20] = dose: 50.0 mg/kg/injection, vehicle: water

C/C=C1\C[C@@H]2C(OC)Nc3cc(O)c(OC)cc3C(=O)N2C1 (some centres undefined)
T/C (dose: 0.03 mg/kg/injection, vehicle: saline): 100 % of control
T/C (dose: 0.03 mg/kg/injection, vehicle: suspension in saline): 92 % of control
T/C (dose: 0.06 mg/kg/injection, vehicle: saline): 110 % of control
T/C (dose: 0.06 mg/kg/injection, vehicle: suspension in saline): 96 % of control
T/C (dose: 0.12 mg/kg/injection, vehicle: saline): 101 % of control
T/C (dose: 0.12 mg/kg/injection, vehicle: suspension in saline): 97 % of control
T/C (dose: 0.25 mg/kg/injection, vehicle: saline): 108 % of control
T/C (dose: 0.25 mg/kg/injection, vehicle: suspension in saline): 104 % of control
T/C [1]: 104 % of control
T/C (dose: 0.5 mg/kg/injection, vehicle: suspension in saline): 105 % of control

O=C1OC(=O)[C@H]2[C@@H]1[C@H]1C=C[C@@H]2OC1=O
T/C [2]: 104 % of control
T/C [3]: 119 % of control
T/C [4]: 98 % of control
T/C [5]: 99 % of control
T/C [6]: 104 % of control

O=[n+]1c2ccccc2n([O-])c2ccccc21.[Cl][Ni][Cl]
T/C [7]: 93 % of control
T/C [8]: 93 % of control
T/C [9]: 90 % of control
T/C [10]: 97 % of control
T/C [11]: 97 % of control

OCCCN1CCCCC1CO (centres undefined)
T/C (dose: 400.0 mg/kg/injection, vehicle: saline): 96 % of control
T/C (dose: 800.0 mg/kg/injection, vehicle: saline): 97 % of control

O=C1C(NCC(O)CO)=C(N2CC2)C(=O)C(NCC(O)CO)=C1N1CC1 (centres undefined)
T/C [1]: 100 % of control
T/C (dose: 1.0 mg/kg/injection, vehicle: saline): 98 % of control
T/C (dose: 2.0 mg/kg/injection, vehicle: saline): 108 % of control
T/C (dose: 4.0 mg/kg/injection, vehicle: saline): 116 % of control

CC(C)(C)c1ccc(CN2CCN(C(c3ccccc3)c3ccc(Cl)cc3)CC2)cc1 (centres undefined)
T/C (dose: 8.0 mg/kg/injection, vehicle: Klucel (hydroxypropylcellulose) (HPC)): 117 % of control
T/C (dose: 16.0 mg/kg/injection, vehicle: Klucel (hydroxypropylcellulose) (HPC)): 115 % of control
T/C (dose: 32.0 mg/kg/injection, vehicle: Klucel (hydroxypropylcellulose) (HPC)): 105 % of control
T/C (dose: 64.0 mg/kg/injection, vehicle: Klucel (hydroxypropylcellulose) (HPC)): 103 % of control

CNC(=O)Oc1ccc[nH]c1=O
T/C (dose: 16.0 mg/kg/injection, vehicle: saline with Tween-80): 101 % of control
T/C (dose: 32.0 mg/kg/injection, vehicle: saline with Tween-80): 103 % of control
T/C (dose: 64.0 mg/kg/injection, vehicle: saline with Tween-80): 104 % of control
T/C (dose: 128.0 mg/kg/injection, vehicle: saline with Tween-80): 90 % of control
T/C (dose: 256.0 mg/kg/injection, vehicle: saline with Tween-80): 94 % of control

CN(C)CCNc1ccc([N+](=O)[O-])c2sc3ccccc3c(=O)c12
T/C (dose: 3.12 mg/kg/injection, vehicle: saline): 96 % of control
T/C (dose: 6.25 mg/kg/injection, vehicle: saline): 108 % of control
T/C (dose: 12.5 mg/kg/injection, vehicle: saline): 115 % of control
T/C [12]: 119 % of control

CCOC(=O)Nc1cc2c(c(N)n1)N=C(c1ccc(Cl)cc1Cl)CN2
T/C [9]: 97 % of control
T/C [10]: 113 % of control

CN1N=C(N)c2cn(C3OC(COP(=O)(O)O)C(O)C3O)c3ncnc1c23 (centres undefined)
T/C [13]: 98 % of control

COc1ccc(/C=C/C(=O)c2cc(C(=O)O)c(OC)cc2OC)cc1OC
T/C [2]: 98 % of control
T/C [3]: 104 % of control
T/C [4]: 98 % of control
T/C [5]: 90 % of control
T/C [6]: 95 % of control

CCCCNC(C)[C@]1(O)Cc2c(O)c3c(c(O)c2[C@@H](OC2CC(N)C(O)C(C)O2)C1)C(=O)c1c(OC)cccc1C3=O (some centres undefined)
T/C (dose: 0.62 mg/kg/injection, vehicle: water): 107 % of control
T/C (dose: 1.25 mg/kg/injection, vehicle: water): 114 % of control
T/C (dose: 2.5 mg/kg/injection, vehicle: water): 103 % of control
T/C (dose: 5.0 mg/kg/injection, vehicle: water): 115 % of control

FC(F)(F)c1nc2nc(Cl)c(Cl)nc2[nH]1
T/C [9]: 98 % of control
T/C [10]: 106 % of control
T/C [11]: 106 % of control
T/C [14]: 93 % of control

CN(C)P(=O)(Oc1ccccc1)N(C)C
T/C [10]: 113 % of control
T/C [11]: 98 % of control
T/C [14]: 101 % of control
T/C [15]: 115 % of control
T/C [16]: 101 % of control
T/C [17]: 100 % of control

NC1(C(=O)O)CCCC1
T/C [12]: 102 % of control
T/C (dose: 50.0 mg/kg/injection, vehicle: saline): 109 % of control and 111 % of control and 120 % of control
T/C (dose: 100.0 mg/kg/injection, vehicle: saline): 121 % of control

Nc1cc(Cl)c2[nH]cnc2n1
T/C [13]: 94 % of control
T/C [18]: 98 % of control
T/C [19]: 100 % of control
T/C [20]: 107 % of control
T/C (dose: 100.0 mg/kg/injection, vehicle: water): 109 % of control
T/C (dose: 200.0 mg/kg/injection, vehicle: water): 100 % of control

CCc1ccccc1N1CCN(C(=O)c2cc(OC)c(OC)c(OC)c2)CC1
T/C (dose: 6.25 mg/kg/injection, vehicle: Klucel (hydroxypropylcellulose) (HPC)): 106 % of control
T/C (dose: 12.5 mg/kg/injection, vehicle: Klucel (hydroxypropylcellulose) (HPC)): 103 % of control
T/C (dose: 25.0 mg/kg/injection, vehicle: Klucel (hydroxypropylcellulose) (HPC)): 110 % of control
T/C (dose: 50.0 mg/kg/injection, vehicle: Klucel (hydroxypropylcellulose) (HPC)): 110 % of control
T/C (dose: 100.0 mg/kg/injection, vehicle: Klucel (hydroxypropylcellulose) (HPC)): 105 % of control

CCO/C=C1\SC(=S)N(c2ccccc2C)C1=O
T/C [10]: 104 % of control
T/C [11]: 110 % of control
T/C [14]: 98 % of control
T/C [15]: 116 % of control
T/C [16]: 108 % of control
T/C [17]: 89 % of control

C[CH2][Sn]([CH2]C)([CH2]C(=O)OC)[CH2]C(=O)OC
T/C (dose: 0.78 mg/kg/injection, vehicle: saline with Tween-80): 102 % of control
T/C [7]: 104 % of control
T/C [8]: 99 % of control
T/C [9]: 101 % of control
T/C [10]: 104 % of control and 105 % of control

NC(=O)c1csc(C2O[C@@H](COP(=O)(O)OP(=O)(O)OC[C@H]3OC(n4cnc5c(N)ncnc54)[C@H](O)[C@@H]3O)[C@H](O)[C@@H]2O)n1 (some centres undefined)
T/C (dose: 3.12 mg/kg/injection, vehicle: water): 101 % of control
T/C [13]: 98 % of control
T/C [18]: 104 % of control
T/C [19]: 120 % of control
T/C [20]: 209 % of control

CCC1CCCCN1C(=S)N/N=C(\C)c1ccccn1 (centres undefined)
T/C [9]: 101 % of control
T/C [10]: 115 % of control
T/C [11]: 104 % of control
